Reference: ChEMBL document CHEMBL1201862, “PubChem BioAssay data set” (2004)
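Grown in 96-well plates, cells were treated for 48 hours with each compound at five concentrations. Insufficient inhibition: endpoint recorded as highest concentration tested. GI50: concentration for 50% inhibition of growth.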 The source made the active and inactive calls. Cut-off read from the data, not from the text of the source: active = GI50 up to about 1.1 µM and inactive = higher.

What was measured:
Test in all cases: growth of human tumour cells (NCI), 48 h
[1] = test system: A498
[2] = test system: ACHN
[3] = test system: CAKI-1
[4] = test system: HCT-116
[5] = test system: HOP-62
[6] = test system: HOP-92
[7] = test system: HT-29
[8] = test system: LOX IMVI
[9] = test system: M14
[10] = test system: RXF 393
[11] = test system: SF-295
[12] = test system: SF-539
[13] = test system: SK-MEL-28
[14] = test system: SK-MEL-2
[15] = test system: SK-OV-3
[16] = test system: U-251
[17] = test system: UACC-257
[18] = test system: UACC-62

Measured: GI50

Clc1ccc(OCc2nnc3n2N=C(c2ccccc2)CS3)c(Cl)c1
inactive: [1] 2.24 µM | [2] 29 µM | [3] 7.33 µM | [4] 2.67 µM | [5] > 10 µM | [6] 4.21 µM | [7] 5.74 µM | [8] 1.64 µM | [9] > 10 µM | [10] 26.4 µM | [11] 4.35 µM | [12] 12.6 µM | [13] > 100 µM | [14] > 100 µM | [15] > 100 µM | [16] 4.81 µM | [17] 56.2 µM | [18] 6.58 µM

CC(=O)C1=NN(c2ccccc2)C2(S1)SC(c1ccccc1)(c1ccccc1)c1ccccc12 (stereo unspecified)
inactive: [1] 89.7 µM | [2] 42.3 µM | [4] 24.4 µM | [5] 34.6 µM | [6] 10.4 µM | [7] 95.3 µM | [8] 61.5 µM | [9] 44.8 µM | [10] 13.2 µM | [11] 26.9 µM | [12] 60.8 µM | [13] > 100 µM | [14] 27 µM | [15] 30.8 µM | [16] 44.7 µM | [17] 34.4 µM | [18] 17.9 µM

CCCCCCCCCCCCCC(=O)NCO
inactive: [1] > 100 µM | [2] > 100 µM | [4] > 100 µM | [5] > 100 µM | [6] > 100 µM | [7] > 100 µM | [8] > 100 µM | [9] > 100 µM | [10] > 100 µM | [11] > 100 µM | [12] > 100 µM | [13] > 100 µM | [14] > 100 µM | [15] > 100 µM | [16] > 100 µM | [17] > 100 µM | [18] > 100 µM

CCCP1(=O)C=C(C)C(=C(Cl)Cl)C(C)=C1 (stereo unspecified)
inactive: [1] 68.9 µM | [2] 44.3 µM | [4] 41.2 µM | [5] 49.3 µM | [6] 24.2 µM | [7] 43 µM | [9] 33.7 µM | [10] 25.9 µM | [11] 35.2 µM | [12] 37.3 µM | [13] 44.1 µM | [14] 16.3 µM | [16] > 100 µM | [17] 64.4 µM | [18] 44 µM

CCCCCCCCCCCC(=O)OCCOCCOCCOCCOCCOCc1ccccc1
inactive: [1] > 100 µM | [2] > 100 µM | [3] > 100 µM | [4] > 100 µM | [5] > 100 µM | [6] > 100 µM | [7] > 100 µM | [8] > 100 µM | [9] > 100 µM | [10] > 100 µM | [11] > 100 µM | [13] > 100 µM | [14] > 100 µM | [15] > 100 µM | [16] > 100 µM | [17] > 100 µM | [18] > 100 µM

O=CC[C@H]1C(=O)C[C@@H]2CCC[C@@H]21
inactive: [1] > 100 µM | [2] > 100 µM | [3] > 100 µM | [4] 37.2 µM | [5] > 100 µM | [6] 57.3 µM | [7] 94 µM | [9] 68.2 µM | [10] 29.6 µM | [11] > 100 µM | [12] 50.1 µM | [13] > 100 µM | [14] 59.2 µM | [15] > 100 µM | [16] 98.6 µM | [17] > 100 µM | [18] 84.3 µM

Cc1nnc2c3nnc(C)n3c3ccccc3n12
inactive: [1] > 100 µM | [2] > 100 µM | [3] > 100 µM | [4] > 100 µM | [5] > 100 µM | [6] > 100 µM | [7] > 100 µM | [8] > 100 µM | [9] > 100 µM | [10] > 100 µM | [11] > 100 µM | [12] > 100 µM | [13] > 100 µM | [14] > 100 µM | [15] > 100 µM | [16] > 100 µM | [17] > 100 µM | [18] > 100 µM

COc1ccc(N2C(=O)C3c4[nH]c5ccccc5c4C4CC(C)(C)CC(C)(C)C4C3C2=O)cc1 (stereo unspecified)
inactive: [1] 14.5 µM | [2] 14.9 µM | [4] 13.5 µM | [5] 16.7 µM | [6] 11.9 µM | [7] 26 µM | [9] 14.3 µM | [10] 12.8 µM | [11] 8.05 µM | [12] 12.6 µM | [13] 14.1 µM | [15] 17.3 µM | [16] 16.8 µM | [17] 19.4 µM | [18] 14.4 µM

C=CCc1ccc(Oc2cc(CC=C)c3c(c2O)O[C@@H](CO)[C@H]3c2ccc(O)c(-c3cc(CC=C)ccc3O)c2)cc1
inactive: [1] 80 µM | [2] 67 µM | [3] > 100 µM | [4] 61.9 µM | [5] 55.7 µM | [6] 52.2 µM | [7] 23.4 µM | [8] 16.5 µM | [9] 47.6 µM | [10] 65.2 µM | [11] 67.1 µM | [12] 40.9 µM | [13] 25.8 µM | [14] 24.3 µM | [15] > 100 µM | [16] 23.1 µM | [17] > 100 µM | [18] 30.1 µM

CCCCCCCCCCCCCC(=O)OCC(C[As](=O)(O)O)OC(=O)CCCCCCCCCCCCC (stereo unspecified)
inactive: [1] > 100 µM | [2] > 100 µM | [3] > 100 µM | [4] > 100 µM | [5] > 100 µM | [6] 86.5 µM | [7] > 100 µM | [9] > 100 µM | [10] 35.3 µM | [12] > 100 µM | [13] > 100 µM | [14] > 100 µM | [15] > 100 µM | [16] 43.9 µM | [17] > 100 µM | [18] > 100 µM

N#CCCN(c1ccc(/C=N/c2ccc(C(=O)O)cc2)cc1)S(=O)(=O)c1ccccc1
inactive: [1] > 100 µM | [2] > 100 µM | [3] > 100 µM | [4] > 100 µM | [5] > 100 µM | [6] > 100 µM | [7] > 100 µM | [8] > 100 µM | [9] > 100 µM | [10] > 100 µM | [11] > 100 µM | [12] > 100 µM | [13] > 100 µM | [14] > 100 µM | [15] > 100 µM | [16] > 100 µM | [17] > 100 µM | [18] > 100 µM

CCOC(=O)/N=c1/nc(N(C)C)ss1
inactive: [1] > 100 µM | [2] > 100 µM | [3] > 100 µM | [4] > 100 µM | [5] > 100 µM | [6] > 100 µM | [7] > 100 µM | [9] > 100 µM | [10] > 100 µM | [11] > 100 µM | [12] > 100 µM | [13] > 100 µM | [14] > 100 µM | [15] > 100 µM | [16] > 100 µM | [17] > 100 µM | [18] > 100 µM

O=C1C=C(Nc2ccc(Cl)cc2Cl)c2ccccc2C1=O
inactive: [1] > 100 µM | [2] 36.2 µM | [3] > 100 µM | [4] 35 µM | [5] 30.5 µM | [6] 21.2 µM | [7] > 100 µM | [9] 21.3 µM | [10] 38.3 µM | [11] 53.5 µM | [12] > 100 µM | [13] 59.8 µM | [14] 23.6 µM | [15] 99.1 µM | [16] 29.4 µM | [17] 35 µM | [18] 16.5 µM

O=C1/C(=C/c2ccc(Cl)cc2)COc2ccc(Br)cc21
inactive: [1] > 100 µM | [2] > 100 µM | [4] > 100 µM | [5] > 100 µM | [6] > 100 µM | [7] > 100 µM | [8] > 100 µM | [10] 50.5 µM | [11] > 100 µM | [12] > 100 µM | [13] > 100 µM | [14] > 100 µM | [15] > 100 µM | [16] > 100 µM | [17] > 100 µM

CC(C)C(=O)NC(=S)Nc1ccc([N+](=O)[O-])cc1C#N
inactive: [1] > 100 µM | [2] > 100 µM | [3] 66.2 µM | [4] > 100 µM | [5] > 100 µM | [6] > 100 µM | [7] > 100 µM | [8] > 100 µM | [9] > 100 µM | [10] > 100 µM | [11] > 100 µM | [12] > 100 µM | [13] > 100 µM | [14] > 100 µM | [15] > 100 µM | [16] > 100 µM | [17] > 100 µM | [18] > 100 µM

Cc1ccc(NC(=O)CC/C(CC(=O)c2ccc(F)cc2)=N\NC(=O)C(=O)NN)cc1C
inactive: [1] > 100 µM | [2] > 100 µM | [3] > 100 µM | [4] > 100 µM | [5] > 100 µM | [6] > 100 µM | [7] > 100 µM | [8] > 100 µM | [9] > 100 µM | [10] > 100 µM | [11] > 100 µM | [12] > 100 µM | [13] > 100 µM | [14] > 100 µM | [15] > 100 µM | [16] > 100 µM | [17] > 100 µM | [18] > 100 µM
